From patent publication US9555050B2 (BIOGEN MA INC., priority 2012, dated 2017) come the findings set out here.

The target of this test is T1, Human ATX protein (Homo sapiens, UniProt Q13822).
T1 construct: made in house
As to the kind of experiment: ATX biochemical FRET assay with FS-3 substrate. The conditions noted are these: FS-3 substrate 2 μM, ATX 1.0 μg/mL, 30 min preincubation, 2 hours at room temperature. From the text:
ATX (Autotaxin) is a 125 KDa glycoprotein with lysophospholipase D (LPLD) activity that generates the bioactive lipid lysophosphatidic acid (LPA) from lysophosphatidylcholine (LPC). The ATX biochemical assay utilizes a FRET (fluorescence resonance energy transfer) technology platform. The fluorescence signal of FRET substrate FS-3 is quenched due to intra-molecular FRET of a fluorophore to a non-fluorescing quencher (Ferguson, C. G., et al., Org Lett. 2006 May 11; 8(10): 2023-2026, which is incorporated by reference in its entirety). ATX catalyzes the hydrolysis of the substrate which separates the dabsyl quencher from the fluorescein reporter, which becomes fluorescent. The reaction is monitored by a SpectraMax M5 (Molecular Devices, Sunnyvale, Calif.) with at excitation wavelength 485 nm and emission wavelength […].
Fatty acid free-BSA (Sigma A8806): 10 mg/mL in H2O, stored at 4° C.
2×ATX assay buffer: 100 mM Tris, 280 mM NaCl, 10 mM KCl, 2 mM CaCl2, 2 mM MgCl2, pH 7.4.
Human ATX protein: expressed and purified in house. Stored at −80° C.
Substrate FS-3 (Echelon, L-2000): 100 μg in 77.74.L H2O (1 mM stock), stored at −20° C.
384-well flat bottom plates—Corning #3575.
Compound dilution—All compounds were provided at 10 mM in 100% DMSO. In the first well, 2 μL of 10 mM compound was added to 78 μL of DMSO (1:40 dilution). In subsequent wells 3-fold dilution (total 10 dilutions) were performed.
1×ATX assay buffer was made up with a final concentration of 1 mg/mL fatty acid free-BSA using 2×ATX assay buffer, 10 mg/ml fatty acid free-BSA and ddH2O.
ATX protein was diluted with 1×ATX assay buffer to a concentration of 1.32 μg/mL (1.32×). 38 μL was added per well to the assay plate. The final concentration of ATX in the reaction as 1.0 μg/mL.
2 μL per well of compounds was transferred to provide the desired concentration. The plate was centrifuged, then incubated at room temperature for 30 minutes on the shaker.
FS-3 was diluted with 1×ATX assay buffer to a concentration of FS-3 of 10 μM (5×). Then, 10 μL was added per well to the assay plate. The final concentration of FS-3 in the reaction was 2 μM. The plate was centrifuged. The plate was kept shaking at room temperature for 2 hours. Because FS-3 substrate is light sensitive, plates were kept covered and protected from light.
Fluorescence was measured using SpectraMax M5 (excitation at 485 nm/emission at 538 nm, top read).
Regarding `O=C(NCCCP(=O)(O)O)c1ccc2c(C(F)(F)F)c(OCc3cc(Cl)cc(Cl)c3)ccc2c1` [Example 18, (3-(6-((3,5-dichlorobenzyl)oxy)-5-(trifluoromethyl)-2-naphthamido)propyl)phosphonic acid], the concentration for half-maximal inhibition (IC50) (commonly the point on the concentration scale where inhibition reaches its midpoint) is no more than 100 nM. With `O=C(O)C[C@@H]1CCN(Cc2ccc3c(C(F)(F)F)c(O[C@H]4CC[C@@H](C(F)(F)F)CC4)ccc3c2)C1` [Example 71, (S)-1-((5-(trifluoromethyl)-6-((cis)-4-(trifluoromethyl)cyclohexyloxy)naphthalene-2-yl)methyl)pyrrolidine-3-acetic acid] the figure was no more than 500 nM; with `O=C(O)CCC1CCN(Cc2ccc3c(C(F)(F)F)c(O[C@H]4CC[C@@H](C(F)(F)F)CC4)ccc3c2)CC1` [Example 83, 3-(1-((2-(cis-4-(trifluoromethyl)cyclohexyloxy)-1-(trifluoromethyl)naphthalen-6-yl)methyl)piperidine-4-yl)propionic acid], no more than 500 nM. Compound `CC(c1ccc2c(C(F)(F)F)c(O[C@H]3CC[C@@H](C)CC3)ccc2c1)N1CCC[C@H](CC(=O)O)C1` (stereo partly drawn) [Example 51, 2-((3R)-1-(1-(6-((cis-4-Methylcyclohexyl)oxy)-5-(trifluoromethyl)naphthalen-2-yl)ethyl)piperidin-3-yl)acetic acid] showed an IC50 of no more than 100 nM.

`CC1(C)C(NCc2ccc3c(C(F)(F)F)c(O[C@H]4CC[C@@H](C(F)(F)F)CC4)ccc3c2)CC1C(=O)O` (stereo partly drawn) [Example 1, 2,2-dimethyl-3-(((5-(trifluoromethyl)-6-((cis-4-(trifluoromethyl)cyclo-hexyl)oxy)naphthalen-2-yl)methyl)amino)cyclobutanecarboxylic acid] yielded a concentration for half-maximal inhibition (IC50) of no more than 500 nM.

For `C[C@H]1CC[C@@H](Oc2ccc3cc(CN4CC(CC(=O)O)C4)ccc3c2C(F)(F)F)CC1` [Example 47, 1-((5-trifluoromethyl-6-(cis-4-methylcyclohexyloxy)naphthalene-2-yl)methyl)-azetidine-3-acetic acid], the IC50 was no more than 500 nM. With `CC1(C)C(NC(c2ccc3c(C(F)(F)F)c(O[C@H]4CC[C@@H](C(F)(F)F)CC4)ccc3c2)C2CC2)CC1C(=O)O` (stereo partly shown) [Example 44] the figure was no more than 100 nM; with `CC(C)CC(NC1CC(C(=O)O)C1(C)C)c1ccc2c(C(F)(F)F)c(O[C@H]3CC[C@@H](C)CC3)ccc2c1` (relative stereo) [Example 90, 2,2-dimethyl-3-(1-(6-((cis)-4-methylcyclohexyloxy)-5-(trifluoromethyl)naphthalen-2-yl)-3-methylbutylamino)cyclobutanecarboxylic acid], no more than 500 nM; with `C[C@H]1CC[C@@H](Oc2ccc3cc(C(N4CCC(C(=O)O)CC4)C(F)(F)F)ccc3c2C(F)(F)F)CC1` (stereo partly drawn) [Example 12, 1-(2,2,2-Trifluoro-1-(6-((cis-4-methylcyclohexyl)oxy)-5-(trifluoromethyl)naphthalen-2-yl)ethyl)piperidine-4-carboxylic acid], no more than 500 nM.

`O=C(O)CC1CN(Cc2ccc3c(C(F)F)c(O[C@H]4CC[C@@H](C(F)(F)F)CC4)ccc3c2)CCO1` (relative stereo) [Example 32, 2-(4-((5-(difluoromethyl)-6-((cis)-4-(trifluoromethyl)cyclohexyloxy)naphthalen-2-yl)methyl)morpholin-2-yl)acetic acid] displayed an IC50 of no more than 500 nM. The value for `CCC(c1ccc2c(C(F)F)c(O[C@H]3CC[C@@H](C)CC3)ccc2c1)N1CC(CC(=O)O)C1` (relative stereo) [Example 99, 1-(1-(5-(Difluoromethyl)-6-((cis-4-methylcyclohexyl)oxy)naphthalen-2-yl)propyl)azetidine-3-acetic acid] was no more than 100 nM; that for `CCC(c1ccc2c(C(F)F)c(O[C@H]3CC[C@@H](C)CC3)ccc2c1)N1CCC(C(=O)O)CC1` (relative stereo) [Example 58, 1-(1-(6-((cis-4-Methylcyclohexyl)oxy)-5-(difluoromethyl)naphthalen-2-yl)propyl)piperidine-4-carboxylic acid] was no more than 100 nM; that for `CC(c1ccc2c(C(F)F)c(O[C@H]3CC[C@@H](C)CC3)ccc2c1)N1CCC[C@@H](CC(=O)O)C1` (stereo partly drawn) [Example 54, 2-((3S)-1-(1-(6-((cis-4-Methylcyclohexyl)oxy)-5-(difluoromethyl)naphthalen-2-yl)ethyl)piperidin-3-yl)acetic acid] was no more than 100 nM. Regarding `C[C@H]1CC[C@@H](Oc2ccc3cc(CN4CC(CC(=O)O)C4)ccc3c2C(F)F)CC1` [Example 97, 1-((5-(Difluoromethyl)-6-((cis-4-methylcyclohexyl)oxy)naphthalen-2-yl)methyl)azetidine-3-acetic acid], the IC50 is no more than 100 nM. With `CC1(C)C(NC(c2ccc3c(C(F)(F)F)c(O[C@H]4CC[C@@H](C)CC4)ccc3c2)C2CC2)CC1C(=O)O` (stereo partly shown) [Example 38] the figure was no more than 250 nM; with `O=C(O)C1CCCN(C(=O)c2ccc3c(C(F)(F)F)c(O[C@H]4CC[C@@H](C(F)(F)F)CC4)ccc3c2)CC1` (relative stereo) [Example 31, 1-(5-(trifluoromethyl)-6-((cis)-4-(trifluoromethyl)cyclohexyloxy)-2-naphthoyl)azepane-4-carboxylic acid], no more than 500 nM.

Compound `CN(Cc1ccc2c(C(F)(F)F)c(O[C@H]3CC[C@@H](C(F)(F)F)CC3)ccc2c1)C[C@H]1CC[C@H](C(=O)O)CC1` [Example 28, (trans)-4-((methyl((5-(trifluoromethyl)-6-((cis)-4-(trifluoromethyl)cyclohexyloxy)naphthalen-2-yl)methyl)amino)methyl)cyclohexanecarboxylic acid] yielded an IC50 of no more than 500 nM. With `CC[C@@H](c1ccc2c(C(F)F)c(O[C@H]3CC[C@@H](C)CC3)ccc2c1)N1CCC[C@H](CC(=O)O)C1` [Example 93, 2-((3R)-1-((S)-1-(6-((cis-4-Methylcyclohexyl)oxy)-5-(difluoromethyl)naphthalen-2-yl)propyl)piperidin-3-yl)acetic acid] the figure was no more than 100 nM. With `C[C@H]1CC[C@@H](Oc2ccc3cc(CN4CCC(CC(=O)O)C4)ccc3c2C(F)(F)F)CC1` (relative stereo) [Example 46, 1-((5-trifluoromethyl-6-(cis-4-methylcyclohexyloxy)naphthalene-2-yl)methyl)-pyrrolidine-3-acetic acid] the figure was no more than 500 nM; with `CC1(C)C(NCc2ccc3c(C(F)(F)F)c(OC4CCC(C(F)(F)F)CC4)ccc3n2)CC1C(=O)O` (stereo not drawn) [Example 87, 2,2-dimethyl-3-((((5-(trifluoromethyl)-6-(cis-4-(trifluoromethyl)cyclo-hexyl)oxy)quinolin-2-yl)methyl)amino)cyclobutanecarboxylic acid], no more than 500 nM. `CC[C@H](c1ccc2c(C(F)F)c(O[C@H]3CC[C@@H](C)CC3)ccc2c1)N1CCC[C@H](CC(=O)O)C1` [Example 94, 2-((3R)-1-((R)-1-(6-((cis-4-Methylcyclohexyl)oxy)-5-(difluoromethyl)naphthalen-2-yl)propyl)piperidin-3-yl)acetic acid] showed an IC50 of no more than 100 nM. The value for `CC(c1ccc2c(C(F)(F)F)c(O[C@H]3CC[C@@H](C)CC3)ccc2c1)N1CCC(C(=O)O)CC1` (relative stereo) [Example 45, 1-(1-(5-trifluoromethyl-6-(cis-4-methylcyclohexyloxy)naphthalene-2-yl)ethyl)-piperidine-4-carboxylic acid] was no more than 500 nM.
